Results on one molecule are retold here after US20070053942A1, “Disinfectant and/or bactericidal aqueous compositions” (priority 2003, published 2007).

The series in a line: solubility in water. Format: physicochemical.

The structures appear in SMILES notation. Where a name gives a salt, the structure may show the parent alone.

With `CCCCCCCCNC(=N)NC(=N)NCc1ccc(Cl)c(Cl)c1` [olanexidine hydrochloride, 1-(3,4-dichlorobenzyl)-5-octylbiguanide], for the setting “at 0° C.”, the “solubility (in water) of olanexidine hydrochloride alone” value stood at 0.02% and the solubility in water was 0.02 W/V %. Also, the Solubility (at 25° C., water, pH adjusted to 6) was 0.05 W/V %.
